Source: patent publication US9029544B2, “Tricyclic pyridine derivatives, medicaments containing such compounds, their use and process for their preparation” (Boehringer Ingelheim International GmbH, priority 2010, dated 2015)

Target: T1, Recombinant human CETP (Homo sapiens, UniProt P11597)
T1 construct: made in house; host or cells: CHO cells (secreted into conditioned medium)
T1 sequence (P11597 18-493): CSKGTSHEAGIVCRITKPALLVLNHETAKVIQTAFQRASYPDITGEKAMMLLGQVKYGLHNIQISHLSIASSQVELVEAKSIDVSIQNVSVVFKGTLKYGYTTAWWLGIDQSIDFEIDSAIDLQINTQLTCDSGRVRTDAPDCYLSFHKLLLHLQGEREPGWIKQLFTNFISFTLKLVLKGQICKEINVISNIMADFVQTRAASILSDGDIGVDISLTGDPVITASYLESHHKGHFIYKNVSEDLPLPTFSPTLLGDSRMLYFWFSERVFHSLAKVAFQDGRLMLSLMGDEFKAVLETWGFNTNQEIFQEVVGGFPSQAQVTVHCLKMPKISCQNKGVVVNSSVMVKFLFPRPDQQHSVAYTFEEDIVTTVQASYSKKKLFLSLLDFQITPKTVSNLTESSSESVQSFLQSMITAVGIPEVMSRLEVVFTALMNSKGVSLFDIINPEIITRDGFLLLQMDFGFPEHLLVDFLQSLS
Assay: CETP in vitro assay (fluorometric assay, Roar Biomedical; cholesterol ester transfer from HDL to LDL)
Type: biochemical
Details: recombinant human CETP from CHO cells; 3 hours at 37° C.; fluorescence 485/535 nm; compound concentrations between 1 nM and 30 μM; read-out: IC50 values for inhibition of CETP
Procedure: CETP inhibitory activity of compounds of the present invention can be determined in a fluorometric assay purchased from Roar Biomedical, Inc. (New York, N.Y., USA). […] Recombinant human CETP was partially purified from medium conditioned by CETP expressing CHO cells. In a 384 well format 2.5 μl of compound solution in DMSO was combined with 2 μl of donor solution, 2 μl of acceptor solution and 0.8 μl of recombinant human CETP solution in a total volume of 100 μl with assay buffer and incubated for 3 hours at 37° C. The fluorescence intensity was measured at excitation wavelength of 485 nm and emission wavelength of 535 nm. IC50 values are calculated from dose effect curves from compound concentrations between 1 nM and 30 μM.

Row | IC50 [nM] | SMILES
1 | 699 | CC(C)c1nc2c(c3c1[C@H](c1ccc(C(F)(F)F)cc1)OC31CCCC1)[C@H](O)CC(C)(C)C2 (single isomer, unassigned) [2 (Diastereomer 1), (3′S,9′R)-4′-isopropyl-7′,7′-dimethyl-3′-(4-(trifluoromethyl)phenyl)-6′,7′,8′,9′-tetrahydro-3′H-spiro[cyclopentane-1,1′-furo[3,4-c]quinolin]-9′-ol]
2 | 193 | CC(C)c1nc2c(c3c1[C@@H](c1ccc(C(F)(F)F)cn1)OC31CCC(F)(F)CC1)[C@@H](O)CC(C)(C)C2 (single isomer, unassigned) [7 (Diastereomer 1), (3′S,9′S)-4,4-difluoro-4′-isopropyl-7′,7′-dimethyl-3′-(5-(trifluoromethyl)pyridin-2-yl)-6′,7′,8′,9′-tetrahydro-3′H-spiro[cyclohexane-1,1′-furo[3,4-c]quinolin]-9′-ol]
3 | 1150 | CC(C)c1nc2c(c3c1[C@H](c1ccc(C(F)(F)F)cn1)OC31CCC(F)(F)CC1)[C@@H](O)CC(C)(C)C2 (single isomer, unassigned) [7 (Diastereomer 2), (3′R,9′S)-4,4-difluoro-4′-isopropyl-7′,7′-dimethyl-3′-(5-(trifluoromethyl)pyridin-2-yl)-6′,7′,8′,9′-tetrahydro-3′H-spiro[cyclohexane-1,1′-furo[3,4-c]quinolin]-9′-ol]
4 | 1830 | CC(=O)O[C@H]1c2nc(C(C)C)c3c(c2[C@@H](O)CC1(C)C)C1(CCCC1)O[C@@H]3c1ccc(C(F)(F)F)nc1 [1(46), (3′R,6′R,9′S)-9′-hydroxy-4′-isopropyl-7′,7′-dimethyl-3′-(6-(trifluoromethyl)pyridin-3-yl)-6′,7′,8′,9′-tetrahydro-3′H-spiro[cyclopentane-1,1′-furo[3,4-c]quinoline]-6′-yl acetate]
5 | 136 | CC(C)c1nc2c(c3c1[C@@H](c1ccc(C(F)(F)F)nc1)OC31CCOCC1)[C@@H](O)CC(C)(C)C2 [1(47), (3R,9S)-4-isopropyl-7,7-dimethyl-3-(6-(trifluoromethyl)pyridin-3-yl)-2′,3′,5′,6,6′,7,8,9-octahydro-3H-spiro[furo[3,4-c]quinoline-1,4′-pyran]-9-ol]
6 | 142 | CC(=O)O[C@H]1c2nc(C(C)C)c3c(c2[C@@H](O)CC1(C)C)C1(CCOCC1)O[C@@H]3c1ccc(C(F)(F)F)cc1 [1(48), (3R,6R,9S)-9-hydroxy-4-isopropyl-7,7-dimethyl-3-(4-(trifluoromethyl)phenyl)-2′,3′,5′,6,6′,7,8,9-octahydro-3H-spiro[furo[3,4-c]quinoline-1,4′-pyran]-6-yl acetate]
7 | 37 | CC(C)c1nc2c(c3c1[C@@H](c1ccc(C(F)(F)F)cn1)OC31CCOCC1)[C@@H](O)CC1(CCC1)C2 [1(49), (3S,9S)-4-isopropyl-7,7-(propan-1,3-diyl)-3-(5-(trifluoromethyl)pyridin-2-yl)-2′,3′,5′,6,6′,7,8,9-octahydro-3H-spiro[furo[3,4-c]quinoline-1,4′-pyran]-9-ol]
8 | 7 | CC(C)c1nc2c(c3c1[C@@H](c1ccc(C(F)(F)F)cc1)OC31CCOCC1)[C@@H](O)CC1(CCC1)C2 [1(50), (3R,9S)-4-isopropyl-7,7-(propan-1,3-diyl)-3-(4-(trifluoromethyl)phenyl)-2′,3′,5′,6,6′,7,8,9-octahydro-3H-spiro[furo[3,4-c]quinoline-1,4′-pyran]-9-ol]
9 | 13 | CC(C)c1nc2c(c3c1[C@@H](c1ccc(C(F)(F)F)cc1F)OC31CCOCC1)[C@@H](O)CC1(CCC1)C2 [1(51), (3S,9S)-3-(2-fluoro-4-(trifluoromethyl)phenyl)-4-isopropyl-7,7-(propan-1,3-diyl)-2′,3′,5′,6,6′,7,8,9-octahydro-3H-spiro[furo[3,4-c]quinoline-1,4′-pyran]-9-ol]
10 | 54 | CC(C)c1nc2c(c3c1[C@@H](c1ccc(C(F)(F)F)nc1)OC31CCOCC1)[C@@H](O)CC1(CCC1)C2 [1(52), (3R,9S)-4-isopropyl-7,7-(propan-1,3-diyl)-3-(6-(trifluoromethyl)pyridin-3-yl)-2′,3′,5′,6,6′,7,8,9-octahydro-3H-spiro[furo[3,4-c]quinoline-1,4′-pyran]-9-ol]
